# Tested on: H9 embryonic stem cells
# Type: cell-based, human
# Details: low serum, on MEFS
# Procedure: Controls for each group included cells plated on […]-coated dishes and cultured in MEF-conditioned medium or cells plated on MEFs and cultured in ES medium. All groups contained three biological replicates and each biological replicate was repeated on two separate gene chips.
# Sample preparation, hybridization, and image analysis were performed according to the Affymetrix Human Genome U133 Plus 2.0 Array. Following normalization and a log transformation, data analysis was performed using OmniViz® software (MA) and […] (VizXLabs, WA). Significant differences in gene expression between the samples were evaluated using analysis of variance and an F-test with adjusted P-value (Benjamini and
# Hochberg correction) of ≦b 0.05. Only genes with a present call in at least one group were included in the analysis.
substance,measurement,value
Activin A: a member of the TGFβ superfamily; R&D Systems; Group 2 = Activin A (100 ng/ml),"log intensity, ESTs (r891)",−0.1307
same,"log intensity, ESTs (r916)",1.395
same,"log intensity, ESTs (r938)",−0.6132
same,"log intensity, ESTs (r980)",0.5547
same,"log intensity, ESTs (r1021)",0.6436
same,"log intensity, ESTs (r1022)",3.471
same,"log intensity, ESTs (r1059)",2.077
same,"log intensity, ESTs (r1060)",2.463
same,"log intensity, ESTs (r1110)",3.792
same,"log intensity, ESTs (r1115)",2.521
same,"log intensity, ESTs, Highly similar to AF229172 1 class III myosin",0.002417
same,"log intensity, ESTs, Moderately similar to ALU4_HUMAN ALU SUBFAMILY SB2",−0.9837
same,"log intensity, ESTs, Moderately similar to JC4969 pig-c protein",−1.045
same,"log intensity, ESTs, Moderately similar to NFY-C",−0.2427
same,"log intensity, ESTs, Weakly similar to A46302 PTB-associated splicing factor, long form",2.695
same,"log intensity, ESTs, Weakly similar to ALU8_HUMAN ALU SUBFAMILY SX",4.578
same,"log intensity, ESTs, Weakly similar to ALUC_HUMAN",2.7193
same,"log intensity, ESTs, Weakly similar to ALUF_HUMAN",0.5876
same,"log intensity, ESTs, Weakly similar to KIAA1330 protein",1.182
same,"log intensity, ESTs, Weakly similar to KIAA1399 protein",2.8
same,"log intensity, ESTs, Weakly similar to T32252 hypothetical protein T15B7.2",3.333
same,"log intensity, ESTs, Weakly similar to Z132_HUMAN ZINC FINGER PROTEIN 13",2.122
same,"log intensity, F37Esophageal cancer-related gene-coding leucine-zipper motif (FEZ1)",2.104
same,"log intensity, FLICE-like inhibitory protein short form",4.928
same,"log intensity, GS1999full mRNA",0.8499
same,"log intensity, H1 histone family, member X (H1FX)",4.51
same,"log intensity, H2A histone family, member X",−0.04057
same,"log intensity, H. sapiens skeletal embryonic myosin light chain 1 (MLC1)",2.36
same,"log intensity, HT016 mRNA",2.452
same,"log intensity, Homo sapiens nudix (nucleoside diphosphate linked moiety X)-type motif (r1198)",6.428
same,"log intensity, Human DNA sequence from clone RP4-781L3 on chromosome 1p34.3-36.11",4.439
same,"log intensity, Human DNA sequence from clone RP11-446H13 on chromosome 10",2.12
same,"log intensity, Human MLC1emb gene for embryonic myosin alkaline light chain, promoter and exon 1",4.04
same,"log intensity, Human clone 23826 mRNA sequence",1.443
same,"log intensity, Human embryonic myosin alkali light chain (MLC1)",4.115
same,"log intensity, Human extracellular matrix protein 1 (ECM1)",1.376
same,"log intensity, Human mRNA for pro-alpha 1 (II) collagen 3end C-term.",2.157
same,"log intensity, Human rho GDI mRNA",−0.6515
same,"log intensity, KIAA0127 gene product (KIAA0127)",3.002
same,"log intensity, KIAA0346 protein",1.415
same,"log intensity, KIAA0418 gene product",0.03438
same,"log intensity, KIAA0761 protein",1.059
same,"log intensity, KIAA0882 protein",4.675
same,"log intensity, KIAA0918 protein",−0.575
same,"log intensity, KIAA1415 protein",1.743
same,"log intensity, KIAA1511 protein",1.575
same,"log intensity, Kruppel-like factor 8 (KLF8)",1.639
same,"log intensity, LIM homeobox protein 1 (LHX1)",0.08556
same,"log intensity, LYST-interacting protein LIP3",−0.3125
same,"log intensity, MAD (mothers against decapentaplegic, Drosophila) homolog 6 (MADH6)",3.5309
same,"log intensity, MYC-associated zinc finger protein (purine-binding transcription factor) (MAZ)",0.5113
same,"log intensity, Novel human mRNA from chromosome 22",3.058
same,"log intensity, PNAS-145 mRNA",4.2868
same,"log intensity, PRO1957 mRNA",4.227
same,"log intensity, PTPRF interacting protein, binding protein 2 (liprin beta 2)",2.773
same,"log intensity, Pig10 (PIG10)",1.098
same,"log intensity, SG2NA beta isoform",−1.534
same,"log intensity, Similar to B9 protein, clone MGC: 11339",2.292
same,"log intensity, Similar to RIKEN cDNA C330013D18 gene, clone MGC: 11226",1.427
same,"log intensity, Similar to lipase protein, clone MGC: 2843",0.9617
same,"log intensity, X75208 H. sapiens HEK2 mRNA for protein tyrosine kinase receptor",1.082
same,"log intensity, adaptor-related protein complex 3, beta 2 subunit (AP3B2)",1.074
same,"log intensity, adenylate cyclase 8 (brain) (ADCY8)",−2.261
same,"log intensity, alpha 2,8-sialyltransferase",1.055
same,"log intensity, aminolevulinate, delta-, dehydratase, clone MGC: 5057",2.769
same,"log intensity, annexin A6 (ANXA6), transcript variant 1",4.5
same,"log intensity, apolipoprotein A-II (APOA2)",4.759
same,"log intensity, apolipoprotein C-I (APOC1)",5.51
same,"log intensity, arrestin, beta 1 (ARRB1), transcript variant 1",−0.4092

# Reference: US20100255580A1, “Differentiation of Human Embryonic Stem Cells” (LIFESCCAN, INC., priority 2007, published 2010)
